This note sets out measurements from patent US20260309717A1, “PROXIMITY INDUCING SYSTEM AND USES THEREOF” (SORBONNE UNIVERSITE, priority 2022, published 2026).

For the experiment, the target named is T1, ^FIREmate and ^FIREtag (TOM20-ECFP-^FIREmate / mCherry-^FIREtag) (Halorhodospira halophila, UniProt P16113, A30V/C69G/D97P/F96I, form not given/G21E/G25R/K17N/M100R/M109L/Q41L/Q99S/S72T/T101G/V83A/Y94W/Y98T).
T1 construct: TOM20(1-34)-ECFP-FIREmate and mCherry-FIREtag in HeLa or U2OS cells
T1 sequence (P16113 1-114 A30V/C69G/D97P/F96I/G21E/G25R/K17N/M100R/M109L/Q41L/Q99S/S72T/T101G/V83A/Y94W/Y98T): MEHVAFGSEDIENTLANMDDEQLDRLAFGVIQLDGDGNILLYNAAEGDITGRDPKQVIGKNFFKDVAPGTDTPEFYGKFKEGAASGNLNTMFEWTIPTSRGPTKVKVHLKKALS
Description: Recruitment of cytoplasmic mCherry-^FIREtag to mitochondria (TOM20-ECFP-^FIREmate), time-lapse confocal microscopy, HeLa cells. The format is cell-based. The note with it: 10 μM. As to the method:
FIGS. 3A-E illustrate the recruitment of cytoplasmic proteins to mitochondria with the proximity inducing system described herein. FIG. 3A is a schematic representation of the experimental design wherein HeLa cells co-expressing mCherry-^FIREtag and Tom20-ECFP-^FIREmate were treated with 10 μM of match (either HBR-2,5DM or HMBR), and imaged by time-lapse confocal microscopy. FIGS. 3B-C are graphs showing the temporal evolution of the FIRE signal detected upon addition at 0 min of HBR-2,5DM (match1-3B) or HMBR (match2-3C). Data represents the mean values±SD of 20 cells from n=3 independent experiments (3B, D), or of 10 cells from n=3 independent experiments (3C, E). FIGS. 3D-E are sets of representative confocal micrographs of cells before (0 min) and after (5 min) addition of HBR-2,5DM (match1-3D) or HMBR (match2-3E) (mCherry: ex/em 561/606-675 nm; FIRE: ex/em 488/508-570 nm; ECFP: ex/em 445/455-499 nm). […] Scale bars are 20 μm.
FIGS. 4A-D illustrate the recruitment over time of cytoplasmic proteins to mitochondria with the proximity inducing system described herein. (4A, C) HeLa cells co-expressing mCherry-^FIREtag and Tom20-ECFP-^FIREmate were treated with 10 μM HBR-2,5DM and imaged by time-lapse confocal microscopy at 1 image per 5 seconds. […] FIG. 4C is a graph showing the temporal evolution of the FIRE signal detected in HeLa cells upon addition of HBR-2,5DM at 0 sec. […] FIG. 4D is a graph showing the temporal evolution of the FIRE signal detected in U2OS cells upon addition of HBR-2,5DM at 0 min. […]
The confocal micrographs were acquired on a Zeiss LSM 980 Laser Scanning Microscope equipped with a plan apochromat 63x/1.4 NA oil immersion objective. […] The images were analyzed using Icy (2.4.0.0) and Fiji (Image J). In short, to track fluorescence signal in a specific organelle, a ROI (region of interest) was determined by masking the signal in the ECFP (Enhanced Cyan Fluorescent Protein) channel with the plug-in HK-means with the following parameters: intensity class equals 100, minimum object size (pixels or px) equals 500, maximum object size (px) equals 1500-3000. […]

For the molecule `Cc1cc(/C=C2\SC(=S)NC2=O)c(C)cc1O` [HBR-2,5DM, (Z)-5-(4-hydroxy-2,5-dimethylbenzylidene)-2-thioxo-1,3-thiazolidin-4-one], the “half-time of formation of the ternary fluorescent assembly” value (1 image per 5 seconds) was “about 20 seconds”. Further, the “translocation of mCherry-^FIREtag from cytosol to mitochondria” value (5 min) is on record as “very rapid translocation of the mCherry-^FIREtag fusion protein from the cytosol to mitochondria”. The “FIRE signal (fluorescence) at the mitochondria” value (ex/em 488/508-570 nm) is on record as “simultaneous appearance of a strong green fluorescent signal”.
